Values joined by “and” are separate entries in the source; they are usually repeats but may differ in a detail not shown here. Identical values can stand only once.
System: RPE1 cells
Assay: Cell growth assay (IncuCyte confluence over 72 h)
Format: cell-based
Procedure: Cell growth assay: Cell confluence (phase) from RPE1 (hTERT RPE-1, ATCC CLR_4000) or U2OS (ATCC, HTB-96) cell lines were monitored over time with the IncuCyte S3 (Sartiorius, Germany) in 384-well plates in 50 ul DMEM media, supplemented with 10% Fetal Bovine Serum (FBS) 1% penicillin/Streptomycin and incubated 24 h before treatment. Experiment was performed as described in Cano-Franco et al.. 50 μl of media containing either 2× final concentration of indicated compounds in or control compounds (final conc.: 0.1% DMSO, 250 nM Torin1, 200 ng/mL Bafilomycin) were added and images were taken every two hours over 72 h. Cell confluence is represented as % of area covered by cells. Each data point represents the average ratio or confluence obtained from three individual wells of the plate.

O=C1Nc2ccc(Br)cc2C1=Cc1cc(O)c(O)c(Br)c1 [compound 1]
RPE1 cell growth (100 nM, 10 h, listed as AN1): 30 and 17 and 26 | RPE1 cell growth (100 nM, 12 h, listed as AN1): 33 and 18 and 27 | RPE1 cell growth (100 nM, 14 h, listed as AN1): 37 and 19 and 27 | RPE1 cell growth (100 nM, 16 h, listed as AN1): 37 and 22 and 30 | RPE1 cell growth (100 nM, 18 h, listed as AN1): 41 and 22 and 30 | RPE1 cell growth (100 nM, 20 h, listed as AN1): 42 and 22 | RPE1 cell growth (500 nM, 10 h, listed as AN1): 40 and 23 and 25 | RPE1 cell growth (500 nM, 12 h, listed as AN1): 43 and 24 and 26 | RPE1 cell growth (500 nM, 14 h, listed as AN1): 44 and 25 and 28 | RPE1 cell growth (500 nM, 16 h, listed as AN1): 47 and 29 and 30 | RPE1 cell growth (500 nM, 18 h, listed as AN1): 49 and 29 and 32 | RPE1 cell growth (1 uM, 10 h, listed as AN1): 23 and 42 and 25 | RPE1 cell growth (1 uM, 12 h, listed as AN1): 25 and 45 and 28 | RPE1 cell growth (1 uM, 14 h, listed as AN1): 26 and 48 and 29 | RPE1 cell growth (1 uM, 16 h, listed as AN1): 29 and 49 and 32 | RPE1 cell growth (1 uM, 18 h, listed as AN1): 30 and 50 and 34 | RPE1 cell growth (1 uM, 20 h, listed as AN1): 32 | RPE1 cell growth (3 uM, 10 h, listed as AN1): 43 and 32 and 29 | RPE1 cell growth (3 uM, 12 h, listed as AN1): 45 and 37 and 31 | RPE1 cell growth (3 uM, 14 h, listed as AN1): 48 and 37 and 32 | RPE1 cell growth (3 uM, 16 h, listed as AN1): 50 and 39 and 35 | RPE1 cell growth (3 uM, 18 h, listed as AN1): 53 and 40 and 36 | RPE1 cell growth (3 uM, 20 h, listed as AN1): 52 and 41 and 37 | RPE1 cell growth (5 uM, 10 h, listed as AN1): 47 and 35 | RPE1 cell growth (5 uM, 12 h, listed as AN1): 49 and 38 | RPE1 cell growth (5 uM, 14 h, listed as AN1): 53 and 38 and 42 | RPE1 cell growth (5 uM, 16 h, listed as AN1): 55 and 41 and 44 | RPE1 cell growth (5 uM, 18 h, listed as AN1): 57 and 42 and 46 | RPE1 cell growth (5 uM, 20 h, listed as AN1): 56 and 45 and 49 | RPE1 cell growth (10 uM, 10 h, listed as AN1): 47 and 35 and 32 | RPE1 cell growth (10 uM, 12 h, listed as AN1): 51 and 37 and 33 | RPE1 cell growth (10 uM, 14 h, listed as AN1): 53 and 39 and 36 | RPE1 cell growth (10 uM, 16 h, listed as AN1): 55 and 43 and 35 | RPE1 cell growth (10 uM, 18 h, listed as AN1): 56 and 38 and 37 | RPE1 cell growth (10 uM, 20 h, listed as AN1): 54 and 41 and 38 | effect on cell growth (confluence) (RPE1, 72 h): high dosage effects

CO[C@@H]1[C@@H](OC(N)=O)[C@@H](O)[C@H](Oc2ccc3c(O)c(NC(=O)c4ccc(O)c(CC=C(C)C)c4)c(=O)oc3c2C)OC1(C)C [compound 12, Novobiocin]
RPE1 cell growth (100 nM, 0 h): 25 and 15 | RPE1 cell growth (100 nM, 2 h): 26 and 15 and 17 | RPE1 cell growth (100 nM, 4 h): 29 and 17 and 18 | RPE1 cell growth (100 nM, 6 h): 30 and 18 | RPE1 cell growth (100 nM, 8 h): 33 and 18 and 20 | RPE1 cell growth (100 nM, 10 h): 36 and 19 and 21 | RPE1 cell growth (500 nM, 0 h): 27 and 16 and 18 | RPE1 cell growth (500 nM, 2 h): 32 and 16 and 20 | RPE1 cell growth (500 nM, 4 h): 32 and 18 and 22 | RPE1 cell growth (500 nM, 6 h): 35 and 18 and 22 | RPE1 cell growth (500 nM, 8 h): 38 and 20 and 23 | RPE1 cell growth (500 nM, 10 h): 39 and 21 | RPE1 cell growth (1 uM, 0 h): 18 and 23 and 20 | RPE1 cell growth (1 uM, 2 h): 20 and 26 and 21 | RPE1 cell growth (1 uM, 4 h): 22 and 28 and 21 | RPE1 cell growth (1 uM, 6 h): 23 and 32 | RPE1 cell growth (1 uM, 8 h): 26 and 35 and 25 | RPE1 cell growth (1 uM, 10 h): 27 | RPE1 cell growth (3 uM, 0 h): 27 and 19 and 22 | RPE1 cell growth (3 uM, 2 h): 31 and 19 and 24 | RPE1 cell growth (3 uM, 4 h): 33 and 20 and 27 | RPE1 cell growth (3 uM, 6 h): 37 and 22 and 28 | RPE1 cell growth (3 uM, 8 h): 41 and 24 and 30 | RPE1 cell growth (3 uM, 10 h): 40 and 26 and 31 | RPE1 cell growth (5 uM, 0 h): 24 and 20 | RPE1 cell growth (5 uM, 2 h): 28 and 22 and 24 | RPE1 cell growth (5 uM, 4 h): 31 and 22 and 26 | RPE1 cell growth (5 uM, 6 h): 34 and 23 and 27 | RPE1 cell growth (5 uM, 8 h): 36 and 26 and 28 | RPE1 cell growth (5 uM, 10 h): 35 and 26 and 30 | RPE1 cell growth (10 uM, 0 h): 22 and 24 and 16 | RPE1 cell growth (10 uM, 2 h): 24 and 19 | RPE1 cell growth (10 uM, 4 h): 26 and 24 and 20 | RPE1 cell growth (10 uM, 6 h): 29 and 25 and 23 | RPE1 cell growth (10 uM, 8 h): 32 and 28 and 23 | RPE1 cell growth (10 uM, 10 h): 32 and 28 and 26

O=c1cc(-c2ccccc2)c2c(O)cc(O)cc2o1 [compound 2]
RPE1 cell growth (100 nM, 0 h, listed as AN2): 20 and 12 and 15 | RPE1 cell growth (100 nM, 2 h, listed as AN2): 24 and 13 and 16 | RPE1 cell growth (100 nM, 4 h, listed as AN2): 26 and 14 and 18 | RPE1 cell growth (100 nM, 6 h, listed as AN2): 28 and 15 and 18 | RPE1 cell growth (100 nM, 8 h, listed as AN2): 30 and 15 and 19 | RPE1 cell growth (100 nM, 10 h, listed as AN2): 32 and 17 | RPE1 cell growth (500 nM, 0 h, listed as AN2): 22 and 20 | RPE1 cell growth (500 nM, 2 h, listed as AN2): 27 and 18 and 21 | RPE1 cell growth (500 nM, 4 h, listed as AN2): 29 and 19 and 24 | RPE1 cell growth (500 nM, 6 h, listed as AN2): 32 and 20 and 24 | RPE1 cell growth (500 nM, 8 h, listed as AN2): 35 and 21 and 25 | RPE1 cell growth (1 uM, 0 h, listed as AN2): 17 and 22 and 23 | RPE1 cell growth (1 uM, 2 h, listed as AN2): 19 and 26 and 23 | RPE1 cell growth (1 uM, 4 h, listed as AN2): 22 and 28 and 26 | RPE1 cell growth (1 uM, 6 h, listed as AN2): 22 and 31 and 24 | RPE1 cell growth (1 uM, 8 h, listed as AN2): 24 and 34 and 27 | RPE1 cell growth (1 uM, 10 h, listed as AN2): 25 | RPE1 cell growth (3 uM, 0 h, listed as AN2): 24 and 21 and 19 | RPE1 cell growth (3 uM, 2 h, listed as AN2): 30 and 22 and 21 | RPE1 cell growth (3 uM, 4 h, listed as AN2): 32 and 21 and 24 | RPE1 cell growth (3 uM, 6 h, listed as AN2): 36 and 22 and 26 | RPE1 cell growth (3 uM, 8 h, listed as AN2): 39 and 24 and 26 | RPE1 cell growth (3 uM, 10 h, listed as AN2): 39 and 27 and 28 | RPE1 cell growth (5 uM, 0 h, listed as AN2): 22 and 21 | RPE1 cell growth (5 uM, 2 h, listed as AN2): 28 and 21 and 24 | RPE1 cell growth (5 uM, 4 h, listed as AN2): 32 and 22 and 27 | RPE1 cell growth (5 uM, 6 h, listed as AN2): 35 and 24 and 29 | RPE1 cell growth (5 uM, 8 h, listed as AN2): 37 and 24 and 30 | RPE1 cell growth (5 uM, 10 h, listed as AN2): 38 and 26 and 32 | RPE1 cell growth (10 uM, 0 h, listed as AN2): 27 and 24 and 19 | RPE1 cell growth (10 uM, 2 h, listed as AN2): 31 and 27 and 22 | RPE1 cell growth (10 uM, 4 h, listed as AN2): 34 and 26 and 24 | RPE1 cell growth (10 uM, 6 h, listed as AN2): 37 and 25 and 26 | RPE1 cell growth (10 uM, 8 h, listed as AN2): 40 and 29 and 27 | RPE1 cell growth (10 uM, 10 h, listed as AN2): 42 and 31 and 30

Source: paper PMC11589570, “Critical assessment of LC3/GABARAP ligands used for degrader development and ligandability of LC3/GABARAP binding pockets” (Nature Communications, 2024)
